# Assays:
# patients with RLS = experiment: Treatment of 2 patients with RLS (therapeutic history, monotherapies and combination therapy of pramipexole and clonidine)
# Experimental: 1. […] The clonidine was also initially prescribed in a single dose of 0.075 mg two hours before bedtime and increased by 0.075 mg at intervals of 3 days.
# 2. Treatment with a Combination Therapy of Clonidine and Pramipexole After slowly bringing the clonidine therapy to a complete halt and after a treatment-free period of about 1 week, both patients were treated with a combination of 0.088 mg of pramipexole and 0.075 mg of clonidine. […] After 7 days the dosage of pramipexole had been increased to 0.18 mg and the dosage of clonidine to 0.15 mg, two hours before going to sleep.
# [1] = test system: Restless Legs Syndrome patients; conditions: cited from earlier work; for effectiveness in RLS: short-term therapy trials of dopamine agonists
# [2] = clonidine monotherapy, single dose before bedtime, 0.225 mg (male) / 0.45 mg (female)
compound,measurement,setting,value
Cc1nnc2n1-c1sc(Br)cc1C(c1ccccc1Cl)=NC2 [Brotizolam],falling asleep and sleeping through,"patients with RLS; previous therapy, prescribed for limited time only",improved the falling asleep and sleeping through
NC(=O)N1c2ccccc2C=Cc2ccccc21 [Carbamazepine],relief from the complaint,[1]; a few partly open trials,only partial relief from the complaint
N[C@@H](Cc1ccc(O)c(O)c1)C(=O)O [L-DOPA],augmentation,"patients with RLS; human, in vivo",typical augmentation during the day
same,"disadvantage of therapy (loss of effectiveness, rebound, augmentation)",[1]; in vivo,effectiveness declines and/or there is a shift of the RLS problems to the morning (rebound) or afternoon (augmentation)
same,alleviation of the complaint,"[1]; long-term therapy, with improvement in quality of life and sleep",significant alleviation of the complaint
CC(C)C[C@H]1C(=O)N2CCC[C@H]2[C@]2(O)O[C@](NC(=O)[C@@H]3C[C@@H]4c5cccc6[nH]cc(c56)C[C@H]4N(C)C3)(C(C)C)C(=O)N12 [alphadihydroergocryptine],effectiveness in RLS,[1],found to be effective
C=CCN1C[C@H](C(=O)N(CCCN(C)C)C(=O)NCC)C[C@@H]2c3cccc4[nH]cc(c34)C[C@H]21 [cabergoline],effectiveness in RLS,[1],found to be effective
"Clc1cccc(Cl)c1NC1=NCCN1 [clonidine, 2-(2,6-dichloroanilino)-4,5-dihydroimidazole]",compulsive movements,patients with RLS; [2],had also improved
same,paresthesia,patients with RLS; [2],felt hardly any paresthesia
same,quality of sleep and number of times they woke during the night,patients with RLS; [2],had not changed
same,"perceived symptoms such as paresthesia, compulsive movement and tiredness during the day","[1]; 4 open trials, 2 double-blind placebo-controlled trials, single case study, daily doses 0.1-0.9 mg",(statistically significant) reduction in perceived symptoms
same,sleep latency (polysomnographic),[1]; daily doses 0.1-0.9 mg,shortened
same,"quality of sleep, frequency of waking or periodic leg movements in sleep (PLMS)","[1]; polysomnographic, daily doses 0.1-0.9 mg",not affected
CCN(CC)C(=O)N[C@H]1C=C2c3cccc4[nH]cc(c34)C[C@H]2N(C)C1 [lisuride],effectiveness in RLS,[1],found to be effective
CCCN1C[C@H](CSC)C[C@@H]2c3cccc4[nH]cc(c34)C[C@H]21 [pergolide],side effects preventing further dose increase,patients with RLS; previous therapy of the 2 RLS patients,"side effects such as nausea, gastrointestinal problems and dizziness"
same,effectiveness in RLS,[1],found to be effective
"CCCN[C@H]1CCc2nc(N)sc2C1 [pramipexole, (S)-2-amino-6-n-propylamino-4,5,6,7-tetrahydro-benzothiazole]",symptoms,"patients with RLS; pramipexole monotherapy, 0.088 mg two hours before bedtime, increased to 0.36 mg (male) / 0.27 mg (female) daily, no difference from earlier therapy",symptoms certainly improved
same,effectiveness in RLS,[1],found to be effective
CCCN(CCC)CCc1cccc2c1CC(=O)N2 [ropinirol],effectiveness in RLS,[1],found to be effective
bromocryptine,effectiveness in RLS,[1],found to be effective
